Measured values reported in ChEMBL document CHEMBL1201862, “PubChem BioAssay data set” (2004).
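Each compound was tested at five concentrations against cells in 96-well plates for 48 hours. The concentration for 50% growth inhibition is given as GI50.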 Active and inactive are the calls of the source. Rule as the data show it: active = GI50 up to about 1.1 µM and inactive = higher.

Legend:
Test in all cases: NCI tumour cell line growth inhibition, 48 h
A549 = test system: A549
CAKI-1 = test system: CAKI-1
DU-145 = test system: DU-145
Hs-578T = test system: Hs-578T
IGROV-1 = test system: IGROV-1
KM12 = test system: KM12
LOX IMVI = test system: LOX IMVI
M14 = test system: M14
MDA-MB-231 = test system: MDA-MB-231
NCI-H226 = test system: NCI-H226
OVCAR-8 = test system: OVCAR-8
RPMI-8226 = test system: RPMI-8226
SF-295 = test system: SF-295
SK-MEL-5 = test system: SK-MEL-5
SR = test system: SR
UO-31 = test system: UO-31
HOP-62 = test system: HOP-62
HT-29 = test system: HT-29
SK-OV-3 = test system: SK-OV-3
MDA-N = test system: MDA-N

Measured: GI50

C=C(C)[C@@H]1CCC2=C[C@H](C/C(C)=C\C3=CC(C)=C(O3)[C@H]1O)OC2=O
inactive: A549 88.7 µM | CAKI-1 > 100 µM | DU-145 > 100 µM | Hs-578T 65.5 µM | IGROV-1 93.1 µM | KM12 > 100 µM | LOX IMVI > 100 µM | M14 > 100 µM | MDA-MB-231 25.8 µM | NCI-H226 36.1 µM | OVCAR-8 73.8 µM | RPMI-8226 > 100 µM | SF-295 80.9 µM | SK-MEL-5 > 100 µM | SR > 100 µM | UO-31 > 100 µM

Clc1ccc(-c2c3nc(c(-c4ccc(Cl)cc4)c4ccc([nH]4)c(-c4ccc(Cl)cc4)c4nc(c(-c5ccc(Cl)cc5)c5ccc2[nH]5)C=C4)C=C3)cc1
inactive: A549 > 100 µM | CAKI-1 > 100 µM | HOP-62 > 100 µM | HT-29 > 100 µM | Hs-578T 40.1 µM | IGROV-1 > 100 µM | KM12 > 100 µM | LOX IMVI > 100 µM | M14 > 100 µM | MDA-MB-231 > 100 µM | OVCAR-8 > 100 µM | RPMI-8226 > 100 µM | SF-295 > 100 µM | SK-MEL-5 > 100 µM | SK-OV-3 > 100 µM | SR > 100 µM | UO-31 > 100 µM

Cc1ccc(C(=O)N/N=C(\N=N\c2ccccc2C(=O)O)c2ccc(N(C)C)cc2)cc1
inactive: A549 98.2 µM | CAKI-1 > 100 µM | DU-145 > 10 µM | HT-29 > 100 µM | Hs-578T > 100 µM | IGROV-1 > 100 µM | KM12 42.9 µM | LOX IMVI > 100 µM | M14 64.6 µM | MDA-MB-231 > 100 µM | MDA-N 19 µM | NCI-H226 > 100 µM | OVCAR-8 > 100 µM | RPMI-8226 > 100 µM | SF-295 41.6 µM | SK-MEL-5 > 100 µM | UO-31 80.4 µM

Cc1cc2nc3c(C#N)c(-c4ccccc4)cc(Nc4ccc(Cl)cc4)n3c2cc1C
inactive: A549 > 100 µM | CAKI-1 > 100 µM | HOP-62 > 100 µM | KM12 59.4 µM | LOX IMVI > 100 µM | M14 > 100 µM | MDA-MB-231 > 100 µM | MDA-N > 100 µM | NCI-H226 > 100 µM | OVCAR-8 48.2 µM | RPMI-8226 5.6 µM | SF-295 > 100 µM | SK-MEL-5 > 100 µM | SK-OV-3 > 100 µM | UO-31 > 100 µM

COc1ccccc1/N=C1\SCCN1C(=S)Nc1ccc(S(=O)(=O)/N=C/N(C)C)cc1
inactive: A549 > 100 µM | CAKI-1 33.7 µM | DU-145 29.6 µM | HOP-62 > 100 µM | KM12 > 100 µM | LOX IMVI 29.9 µM | M14 51.5 µM | MDA-MB-231 > 100 µM | MDA-N 26.5 µM | NCI-H226 > 100 µM | OVCAR-8 35.2 µM | RPMI-8226 21.6 µM | SF-295 > 100 µM | SK-MEL-5 15.9 µM | SK-OV-3 > 100 µM | UO-31 38.5 µM

CCOC(=O)CCn1cnc(N)n1
inactive: A549 > 100 µM | CAKI-1 > 100 µM | HOP-62 > 100 µM | HT-29 > 100 µM | IGROV-1 > 100 µM | KM12 > 100 µM | LOX IMVI > 100 µM | M14 > 100 µM | NCI-H226 > 100 µM | OVCAR-8 > 100 µM | RPMI-8226 > 100 µM | SF-295 > 100 µM | SK-MEL-5 > 100 µM | SK-OV-3 > 100 µM | SR > 100 µM | UO-31 > 100 µM

COc1ccc(Nc2nc3cc(C(F)(F)F)ccc3nc2C(=O)O)cc1OC
inactive: A549 41.3 µM | CAKI-1 27 µM | DU-145 15.4 µM | HOP-62 35 µM | HT-29 40.2 µM | Hs-578T 52.2 µM | IGROV-1 36.5 µM | KM12 27.8 µM | LOX IMVI 28.9 µM | M14 37.4 µM | MDA-MB-231 29 µM | NCI-H226 16.4 µM | OVCAR-8 39.5 µM | RPMI-8226 25.8 µM | SF-295 10.5 µM | SK-MEL-5 22.4 µM | SR 25.1 µM | UO-31 28.2 µM

CN/N=C(\C)CC(=O)Nc1cccc(Cl)c1C
inactive: A549 > 100 µM | CAKI-1 > 100 µM | HOP-62 > 100 µM | HT-29 > 100 µM | IGROV-1 > 100 µM | KM12 > 100 µM | LOX IMVI > 100 µM | M14 > 100 µM | NCI-H226 > 100 µM | OVCAR-8 > 100 µM | RPMI-8226 > 100 µM | SF-295 > 100 µM | SK-MEL-5 > 100 µM | SK-OV-3 > 100 µM | SR 28.6 µM | UO-31 > 100 µM
